Consider 1 molecule from US11229633B2, “Arimoclomol formulation” (Orphazyme A/S, priority 2014, dated 2022).

For data set [1] the following is noted: in vivo; cited from earlier work.
In a further data set the target is T1, OATP1B1 (Homo sapiens, UniProt Q9Y6L6).
T1 sequence (Q9Y6L6 1-691): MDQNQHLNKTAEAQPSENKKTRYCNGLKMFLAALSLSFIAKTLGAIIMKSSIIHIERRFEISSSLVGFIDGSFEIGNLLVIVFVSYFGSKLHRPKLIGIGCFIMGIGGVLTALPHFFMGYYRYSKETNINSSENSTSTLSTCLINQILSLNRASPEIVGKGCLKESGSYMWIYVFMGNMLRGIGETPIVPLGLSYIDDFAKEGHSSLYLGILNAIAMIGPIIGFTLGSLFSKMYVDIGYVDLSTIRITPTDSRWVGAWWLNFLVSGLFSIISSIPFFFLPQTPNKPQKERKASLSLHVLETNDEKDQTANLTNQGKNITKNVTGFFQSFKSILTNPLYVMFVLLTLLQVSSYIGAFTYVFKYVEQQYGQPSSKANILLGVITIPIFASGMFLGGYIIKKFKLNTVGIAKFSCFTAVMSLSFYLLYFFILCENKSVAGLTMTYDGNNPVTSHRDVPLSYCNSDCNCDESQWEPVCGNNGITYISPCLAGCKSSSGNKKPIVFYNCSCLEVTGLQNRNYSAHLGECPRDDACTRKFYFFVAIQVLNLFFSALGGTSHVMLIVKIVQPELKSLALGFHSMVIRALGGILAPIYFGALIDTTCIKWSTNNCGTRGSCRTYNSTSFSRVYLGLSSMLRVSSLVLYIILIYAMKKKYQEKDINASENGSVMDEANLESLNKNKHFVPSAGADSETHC
Briefly: Substrate statement, OATP1B1. The class given is in vitro ADME.

A short description of data set [2]: Kinetic solubility assessment in the assay buffers. It counts as physicochemical. The conditions noted are these: aqueous buffer, kinetic from dmso stock, 37° C.
Method: The aqueous solubility of the TA was determined by spectrophotometric measurements in combination with optical microscopy evaluation (5 and 10× magnification). […] The timeframe of the solubility assessment covered the incubation time of the corresponding in vitro experiment.
A stock solution and dilution series (5-step, 2-fold dilution series) of TA were prepared in water. Stock solutions were mixed with the appropriate assay buffers in a 96-wells plate and incubated for 10 minutes at 37° C. before the solutions were evaluated at 500 nm. […] Therefore, to be considered soluble at a given concentration, the background corrected absorbance of the TA solution must be less than 0.030 absorbance units (ΔA=Asolution−Ablank <0.030). The background corrected absorbance value for each solution was determined.
The target in the next data set is T2, human OCT2 (Homo sapiens, UniProt O15244).
T2 construct: expressed in transfected cells; host or cells: CHO (protocol UPT-CHO-OCT2-Metf; control: parental CHO-K1)
T2 sequence (O15244 1-555): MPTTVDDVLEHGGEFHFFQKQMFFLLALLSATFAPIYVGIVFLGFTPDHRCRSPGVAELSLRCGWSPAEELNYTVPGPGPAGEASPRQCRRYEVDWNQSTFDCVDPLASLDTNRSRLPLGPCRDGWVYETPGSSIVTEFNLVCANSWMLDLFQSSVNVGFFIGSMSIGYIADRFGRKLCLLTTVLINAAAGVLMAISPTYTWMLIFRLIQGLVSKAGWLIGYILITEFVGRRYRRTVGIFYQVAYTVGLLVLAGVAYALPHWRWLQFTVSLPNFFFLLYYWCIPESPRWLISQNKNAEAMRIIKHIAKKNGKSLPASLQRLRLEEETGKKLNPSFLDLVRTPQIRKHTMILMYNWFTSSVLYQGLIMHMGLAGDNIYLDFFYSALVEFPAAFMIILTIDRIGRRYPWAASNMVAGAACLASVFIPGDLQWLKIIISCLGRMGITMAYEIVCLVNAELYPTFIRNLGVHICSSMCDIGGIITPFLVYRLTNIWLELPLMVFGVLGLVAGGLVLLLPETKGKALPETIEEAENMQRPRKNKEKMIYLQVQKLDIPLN
Nature of the data set: Uptake transporter substrate feasibility assay, OCT2. The class given is in vitro ADME. Also on record: key to Substrate: NIO: No interaction observed. Here is the method:
Uptake experiments were performed using CHO, MDCKII, or HEK293 cells stably expressing the respective uptake transporters.
Cells were cultured at 37±1° C. in an atmosphere of 95:5 air:CO2 as described in Table 4 and were plated onto standard 24-well tissue culture plates at 2×10^5 cells/well. The uptake of the TA was determined using cells overexpressing the respective uptake transporter and control cells, at two incubation time points (2 and 20 min) and at two concentrations (1 and 10 μM) of TA to determine whether or not the TA was actively taken up into the cells.
Before the experiment, the medium was removed and the cells were washed twice with 300 μl of HK buffer (pH 7.4) (prepared from Sigma chemicals). Cellular uptake of TA into the cells was measured by adding 300 μl of HK buffer containing TA and incubating them at 37±1° C. Reactions were quenched by removing the HK buffer containing the TA and the cells were washed twice with 300 μl of HK buffer. Cells were lysed by adding 300 μl of MeOH:H2O (2:1) and incubated for 20 minutes at 4±1° C. The amount of TA in the cell lysate was determined by LC-MS/MS. The amount of protein in each well was quantified using the BCA kit for protein determination (Sigma-Aldrich, St Louis, Mo., USA). Uptake of the probe substrate in control cells provided background activity values for all data points. Incubation without reference inhibitor (solvent only) provided 100% activity values. A reference inhibitor served as positive control for inhibition.
The fold accumulation value was defined as the ratio of uptake of TA or probe substrate into transfected and control cells:
[formula] UPTTRP: accumulated amount of TA or probe substrate in transfected cells normalized by protein content [pmol/mg protein] UPTCTL: accumulated amount of TA or probe substrate in control cells normalized by protein content [pmol/mg protein]
If the fold accumulation is >2 and can be inhibited by a known inhibitor of the transporter, the TA can be considered to be a substrate of the respective transporter.

The nature of data set [3]: Physical properties of the drug substance. The class given is physicochemical.

In general, solubility refers to the dissolved amount per volume that the medium holds. For the molecule `[O-][n+]1cccc(C(Cl)=NOCC(O)CN2CCCCC2)c1` (stereo not shown) [Arimoclomol, N-[2-hydroxy-3-(1-piperidinyl)-propoxy]-pyridine-1-oxide-3-carboximidoyl chloride], the plasma half-life in data set [1] was 2 to 4 h. Also, the “Substrate of the transporter (in words)” value on OATP1B1 and on human OCT2 was “not a substrate” in each case. Moreover, the solubility at 10 min in data set [2] was no less than 300 µM. The Fold accumulation at human OCT2 (1 μM, 2 min) is recorded as 0.95; at human OCT2 (1 μM, 20 min), 1.28; at human OCT2 (10 μM, 2 min), 0.87; on human OCT2 (10 μM, 20 min) it was 1.05; on human OCT2 (1 and 10 μM, 2 and 20 min), less than 2. At human OCT2 (Table 2), the Substrate result was “NIO”. In addition, in data set [3] (drug substance), the “Carr's Index” value is on record as 44.4%. This molecule also yielded a bulk density in data set [3] (drug substance) of 0.214 g/cm3. This molecule came in with a tapped density in data set [3] (following 250 taps) of 0.386 g/cm3.
